Patent US12365687B2 (Hoffmann-La Roche Inc., priority 2021, dated 2025)

What was measured:
[1] = biological target: α2β2γ1 GABAA receptor subtype (Homo sapiens (Human), UniProt P47869+Q8N1C3); test: Two-electrode voltage clamp electrophysiology in Xenopus oocytes expressing GABAA receptors (modulation of GABA EC20 current); type: cell-based; settings: for Efficacy (GABA)%: % modulation of GABA EC20 = 100*(Fold increase-1), α2β2γ1 oocytes, compound at approx. 30-fold Ki; for Fold increase h-GABA-A α2β2γ1 oocyte @ 30-fold Ki: Xenopus oocytes expressing α2β2γ1, compound at approx. 30-fold its Ki α2β2γ1, GABA EC20 current
In short: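 Each concentration was tested on ≥3 oocytes held at −80 mV at room temperature, recorded 3-5 days post-injection. A control and a test response to EC20 GABA (1.5 min each) were superimposed and their point-by-point ratio taken. Peak ratio reported as % modulation of GABA EC20 = 100×(fold increase−1).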

[2] = biological target: human GABAA α1β3γ2 receptor (Homo sapiens (Human), UniProt P14867+P18507); test: Radioligand binding assay for γ2-containing GABAA subtypes, [3H]Flumazenil competition (α1β3γ2); settings: for γ2/γ1 Selectivity Ratio: Ki α1β3γ2 (nM)/Ki α2β2γ1 (nM); for LogSel: Log[Ki α1β3γ2 (nM)/Ki α2β2γ1 (nM)]
[3] = biological target: human GABAA α5β2γ1 receptor (Homo sapiens (Human), UniProt P31644+Q8N1C3); test: Radioligand binding assay for γ1-containing GABAA subtypes, [3H]RO7239181 competition (α5β2γ1)
[4] = biological target: human GABAA α2β2γ1 receptor (Homo sapiens (Human), UniProt P47869+Q8N1C3); test: Radioligand binding assay for γ1-containing GABAA subtypes, [3H]RO7239181 competition (α2β2γ1)
[5] = Ki h-GABAA α2β2γ1, [3H]RO7239181 competition binding, human GABAA α2β2γ1
[6] = Ki h-GABAA α2β2γ1, displacement of [3H]RO7239181, membranes of HEK293F cells expressing human receptors, means of two determinations

## Cc1cnc2n1-c1ccc(C(F)(F)F)c(Cl)c1C(c1ncccc1F)=N[C@H]2C [Example 136, (4S)-7-chloro-6-(3-fluoro-2-pyridyl)-1,4-dimethyl-8-(trifluoromethyl)-4H-imidazo[1,2-a][1,4]benzodiazepine]
[1]
  Efficacy (GABA)%: 116%
  Fold increase h-GABA-A α2β2γ1 oocyte @ 30-fold Ki: 2.16
[2]
  Ki: 6.13 µM
  γ2/γ1 Selectivity Ratio: 163.5
  LogSel: 2.21
[3]
  Ki: 0.00622 µM
[4]; [5]
  Ki: 0.0375 µM
[4]; [6]
  Ki: 0.0375 µM

## C[C@@H]1N=C(c2ncccc2F)c2c(ccc(C(F)(F)F)c2Cl)-n2nc(C(=O)NCCO)nc21 [Example 138, (4S)-7-chloro-6-(3-fluoro-2-pyridyl)-N-(2-hydroxyethyl)-4-methyl-8-(trifluoromethyl)-4H-[1,2,4]triazolo[1,5-a][1,4]benzodiazepine-2-carboxamide]
[1]
  Efficacy (GABA)%: 204%
  Fold increase h-GABA-A α2β2γ1 oocyte @ 30-fold Ki: 3.04
[2]
  Ki: > 30 µM
  γ2/γ1 Selectivity Ratio: 334.8
  LogSel: 2.52
[3]
  Ki: 0.0171 µM
[4]; [5]
  Ki: 0.0896 µM
[4]; [6]
  Ki: 0.0896 µM

## Cc1cn2c(n1)[C@H](C)N=C(c1ncccc1F)c1c-2ccc(C(F)(F)F)c1Cl [Example 139, (4S)-7-chloro-6-(3-fluoro-2-pyridyl)-2,4-dimethyl-8-(trifluoromethyl)-4H-imidazo[1,2-a][1,4]benzodiazepine]
[1]
  Efficacy (GABA)%: 149%
  Fold increase h-GABA-A α2β2γ1 oocyte @ 30-fold Ki: 2.49
[2]
  Ki: 3.06 µM
  γ2/γ1 Selectivity Ratio: 99.6
  LogSel: 2.00
[3]
  Ki: 0.00554 µM
[4]; [5]
  Ki: 0.0308 µM
[4]; [6]
  Ki: 0.0308 µM

## C[C@@H]1N=C(c2ncccc2F)c2c(ccc(C(F)(F)F)c2Cl)-n2nc(C(=O)N3CC(OC(F)F)C3)nc21 [Example 140, [(4S)-7-chloro-6-(3-fluor-2-pyridyl)-4-methyl-8-(trifluoromethyl)-4H-[1,2,4]triazolo[1,5-a][1,4]benzodiazepin-2-yl]-[3-(difluoromethoxy)azetidin-1-yl]methanone]
[1]
  Efficacy (GABA)%: 121%
  Fold increase h-GABA-A α2β2γ1 oocyte @ 30-fold Ki: 2.21
[2]
  Ki: > 30 µM
  γ2/γ1 Selectivity Ratio: 1041.0
  LogSel: 3.02
[3]
  Ki: 0.00663 µM
[4]; [5]
  Ki: 0.0288 µM
[4]; [6]
  Ki: 0.0288 µM

## C[C@@H]1N=C(c2ncccc2F)c2c(ccc(C(F)(F)F)c2Cl)-n2cc(C(=O)NCCO)nc21 [Example 141, (4S)-7-chloro-6-(3-fluoro-2-pyridyl)-N-(2-hydroxyethyl)-4-methyl-8-(trifluoromethyl)-4H-imidazo[1,2-a][1,4]benzodiazepine-2-carboxamide]
[1]
  Efficacy (GABA)%: 112%
  Fold increase h-GABA-A α2β2γ1 oocyte @ 30-fold Ki: 2.12
[2]
  Ki: 12.2 µM
  γ2/γ1 Selectivity Ratio: 218.4
  LogSel: 2.34
[3]
  Ki: 0.0124 µM
[4]; [5]
  Ki: 0.0559 µM
[4]; [6]
  Ki: 0.0559 µM

## C[C@@H]1N=C(c2ncccc2F)c2c(ccc(C(F)(F)F)c2Cl)-n2nc(C(=O)N3CC(C(F)F)C3)nc21 [Example 142, [(4S)-7-chloro-6-(3-fluoro-2-pyridyl)-4-methyl-8-(trifluoromethyl)-4H-[1,2,4]triazolo[1,5-a][1,4]benzodiazepin-2-yl]-[3-(difluoromethyl)azetidin-1-yl]methanone]
[1]
  Efficacy (GABA)%: 123%
  Fold increase h-GABA-A α2β2γ1 oocyte @ 30-fold Ki: 2.23
[2]
  Ki: > 30 µM
  γ2/γ1 Selectivity Ratio: 756.0
  LogSel: 2.88
[3]
  Ki: 0.00806 µM
[4]; [5]
  Ki: 0.0397 µM
[4]; [6]
  Ki: 0.0397 µM

## C[C@@H]1N=C(c2ncccc2F)c2c(ccc(C(F)(F)F)c2Cl)-n2nc(NC(=O)NC3CC3)nc21 [Example 143, 1-[(4S)-7-chloro-6-(3-fluoro-2-pyridyl)-4-methyl-8-(trifluoromethyl)-4H-[1,2,4]triazolo[1,5-a][1,4]benzodiazepin-2-yl]-3-cyclopropyl-urea]
[1]
  Efficacy (GABA)%: 110%
  Fold increase h-GABA-A α2β2γ1 oocyte @ 30-fold Ki: 2.10
[2]
  Ki: 13.5 µM
  γ2/γ1 Selectivity Ratio: 296.6
  LogSel: 2.47
[3]
  Ki: 0.00735 µM
[4]; [5]
  Ki: 0.0454 µM
[4]; [6]
  Ki: 0.0454 µM

## COC1CN(C(=O)c2cn3c(n2)[C@H](C)N=C(c2ncccc2F)c2c-3ccc(C(F)(F)F)c2Cl)C1 [Example 145, [(4S)-7-chloro-6-(3-fluoro-2-pyridyl)-4-methyl-8-(trifluoromethyl)-4H-imidazo[1,2-a][1,4]benzodiazepin-2-yl]-(3-methoxyazetidin-1-yl)methanone]
[1]
  Efficacy (GABA)%: 168%
  Fold increase h-GABA-A α2β2γ1 oocyte @ 30-fold Ki: 2.68
[2]
  Ki: 13.2 µM
  γ2/γ1 Selectivity Ratio: 141.7
  LogSel: 2.15
[3]
  Ki: 0.0184 µM
[4]; [5]
  Ki: 0.0931 µM
[4]; [6]
  Ki: 0.0931 µM

## C[C@@H]1N=C(c2ncccc2F)c2c(ccc(C(F)(F)F)c2Cl)-n2nc(NC(=O)NC3COC3)nc21 [Example 146, 1-[(4S)-7-chloro-6-(3-fluoro-2-pyridyl)-4-methyl-8-(trifluoromethyl)-4H-[1,2,4]triazolo[1,5-a][1,4]benzodiazepin-2-yl]-3-(oxetan-3-yl)urea]
[1]
  Efficacy (GABA)%: 111%
  Fold increase h-GABA-A α2β2γ1 oocyte @ 30-fold Ki: 2.11
[2]
  Ki: 13.1 µM
  γ2/γ1 Selectivity Ratio: 364.3
  LogSel: 2.56
[3]
  Ki: 0.0072 µM
[4]; [5]
  Ki: 0.0361 µM
[4]; [6]
  Ki: 0.0361 µM

## C[C@@H]1N=C(c2ncccc2F)c2c(ccc(C(F)(F)F)c2Cl)-n2nc(N3CCOC3=O)nc21 [Example 147, 3-[(4S)-7-chloro-6-(3-fluoro-2-pyridyl)-4-methyl-8-(trifluoromethyl)-4H-[1,2,4]triazolo[1,5-a][1,4]benzodiazepin-2-yl]oxazolidin-2-one]
[1]
  Efficacy (GABA)%: 113%
  Fold increase h-GABA-A α2β2γ1 oocyte @ 30-fold Ki: 2.13
[2]
  Ki: 12.6 µM
  γ2/γ1 Selectivity Ratio: 255.4
  LogSel: 2.41
[3]
  Ki: 0.00744 µM
[4]; [5]
  Ki: 0.0493 µM
[4]; [6]
  Ki: 0.0494 µM

## Cc1cn2c(n1)[C@H](C)N=C(c1c(F)cccc1F)c1c-2ccc(C(F)(F)F)c1Cl [Example 148, (4S)-7-chloro-6-(2,6-difluorophenyl)-2,4-dimethyl-8-(trifluoromethyl)-4H-imidazo[1,2-a][1,4]benzodiazepine]
[1]
  Efficacy (GABA)%: 73%
  Fold increase h-GABA-A α2β2γ1 oocyte @ 30-fold Ki: 1.73
[2]
  Ki: 0.866 µM
  γ2/γ1 Selectivity Ratio: 84.7
  LogSel: 1.93
[3]
  Ki: 0.0021 µM
[4]; [5]
  Ki: 0.0102 µM
[4]; [6]
  Ki: 0.0102 µM

## C[C@@H]1N=C(c2c(F)cccc2F)c2c(ccc(C(F)(F)F)c2Cl)-n2cc(CO)nc21 [Example 149, [(4S)-7-chloro-6-(2,6-difluorophenyl)-4-methyl-8-(trifluoromethyl)-4H-imidazo[1,2-a][1,4]benzodiazepin-2-yl]methanol]
[1]
  Efficacy (GABA)%: 71%
  Fold increase h-GABA-A α2β2γ1 oocyte @ 30-fold Ki: 1.71
[2]
  Ki: 1.11 µM
  γ2/γ1 Selectivity Ratio: 134.1
  LogSel: 2.13
[3]
  Ki: 0.00159 µM
[4]; [5]
  Ki: 0.0083 µM
[4]; [6]
  Ki: 0.0083 µM

## C[C@@H]1N=C(c2c(F)cccc2F)c2c(ccc(C(F)(F)F)c2Cl)-n2ccnc21 [Example 150, (4S)-7-chloro-6-(2,6-difluorophenyl)-4-methyl-8-(trifluoromethyl)-4H-imidazo[1,2-a][1,4]benzodiazepine]
[1]
  Efficacy (GABA)%: 70%
[2]
  Ki: 0.758 µM
  γ2/γ1 Selectivity Ratio: 103.2
[3]
  Ki: 0.00133 µM
[4]; [5]
  Ki: 0.0073 µM
[4]; [6]
  Ki: 0.0073 µM

## C[C@@H]1N=C(c2ncccc2F)c2c(ccc(C(F)(F)F)c2Cl)-n2c(CO)cnc21 [Example 151, [(4S)-7-chloro-6-(3-fluoro-2-pyridyl)-4-methyl-8-(trifluoromethyl)-4H-imidazo[1,2-a][1,4]benzodiazepin-1-yl]methanol]
[1]
  Efficacy (GABA)%: 253%
  Fold increase h-GABA-A α2β2γ1 oocyte @ 30-fold Ki: 3.53
[2]
  Ki: 13.2 µM
  γ2/γ1 Selectivity Ratio: 142.0
  LogSel: 2.15
[3]
  Ki: 0.024 µM
[4]; [5]
  Ki: 0.0928 µM
[4]; [6]
  Ki: 0.0928 µM

## C[C@@H]1N=C(c2ncccc2F)c2c(ccc(C(F)(F)F)c2Cl)-n2cc(CO)nc21 [Example 153, [(4S)-7-chloro-6-(3-fluoro-2-pyridyl)-4-methyl-8-(trifluoromethyl)-4H-imidazo[1,2-a][1,4]benzodiazepin-2-yl]methanol]
[1]
  Efficacy (GABA)%: 247%
  Fold increase h-GABA-A α2β2γ1 oocyte @ 30-fold Ki: 3.47
[2]
  Ki: 6.02 µM
  γ2/γ1 Selectivity Ratio: 97.7
  LogSel: 1.99
[3]
  Ki: 0.00676 µM
[4]; [5]
  Ki: 0.0624 µM
[4]; [6]
  Ki: 0.0617 µM

## Cc1c(C(=O)NCCO)nc2n1-c1ccc(C(F)(F)F)c(Cl)c1C(c1ncccc1F)=N[C@H]2C [Example 154, (4S)-7-chloro-6-(3-fluoro-2-pyridyl)-N-(2-hydroxyethyl)-1,4-dimethyl-8-(trifluoromethyl)-4H-imidazo[1,2-a][1,4]benzodiazepine-2-carboxamide]
[1]
  Efficacy (GABA)%: 191%
  Fold increase h-GABA-A α2β2γ1 oocyte @ 30-fold Ki: 2.91
[2]
  Ki: 11.4 µM
  γ2/γ1 Selectivity Ratio: 166.6
  LogSel: 2.22
[3]
  Ki: 0.023 µM
[4]; [5]
  Ki: 0.0687 µM
[4]; [6]
  Ki: 0.0687 µM
